# Biological target: T1, Human Recombinant Matriptase 2 (Homo sapiens, UniProt Q8IU80)
# T1 construct: purchased Enzo Life Sciences (an in-house preparation was also used) ALX-201-752-1
# T1 sequence (Q8IU80 1-811): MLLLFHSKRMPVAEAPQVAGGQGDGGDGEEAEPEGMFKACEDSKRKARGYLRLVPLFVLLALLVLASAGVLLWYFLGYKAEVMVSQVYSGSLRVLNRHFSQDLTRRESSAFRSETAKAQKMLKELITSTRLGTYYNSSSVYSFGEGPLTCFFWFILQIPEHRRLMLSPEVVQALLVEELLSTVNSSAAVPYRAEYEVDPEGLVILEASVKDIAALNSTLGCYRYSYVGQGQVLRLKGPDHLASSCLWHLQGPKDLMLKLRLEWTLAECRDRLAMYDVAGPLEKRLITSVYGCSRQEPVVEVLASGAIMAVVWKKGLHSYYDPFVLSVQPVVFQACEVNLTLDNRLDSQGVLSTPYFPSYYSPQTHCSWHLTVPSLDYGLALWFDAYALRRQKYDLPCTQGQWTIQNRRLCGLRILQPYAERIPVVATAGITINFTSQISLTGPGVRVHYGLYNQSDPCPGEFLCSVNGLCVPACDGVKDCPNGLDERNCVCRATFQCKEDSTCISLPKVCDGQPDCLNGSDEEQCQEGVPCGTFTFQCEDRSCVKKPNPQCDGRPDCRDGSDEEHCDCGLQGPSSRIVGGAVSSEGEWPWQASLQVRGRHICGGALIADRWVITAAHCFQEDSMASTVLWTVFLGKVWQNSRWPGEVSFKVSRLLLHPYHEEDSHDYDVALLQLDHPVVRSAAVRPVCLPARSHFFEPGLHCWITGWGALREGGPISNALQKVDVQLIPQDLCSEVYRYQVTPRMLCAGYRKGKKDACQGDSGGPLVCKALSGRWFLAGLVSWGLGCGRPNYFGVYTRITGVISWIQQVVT
# Assay: Matriptase 2 fluorescence based inhibition assay, Method B (50 mM TRIS pH 7.5, 150 mM NaCl, 0.01% gelatin)
# Type: biochemical
# Settings: 1 uM compound; Assay Used = B
# Protocol: Test compounds were evaluated for their potential to inhibit Human Recombinant Matriptase 2 (in-house and commercial protein from Enzo Life Sciences—cat log -ALX-201-752-1) using fluorescence based assay. The concentration of Recombinant Matriptase 2 and the substrate used in the assay was: 7 nM (commercial) and 15 nM (Inhouse Matriptase 2) and 100 μM (Boc-Gln-Ala-Arg-7-amido-4-methyl coumarin hydrobromide—Cat log: B4153-Sigma and I-1550 from Bachem) respectively. The assay buffer used was 50 mM TRIS pH 7.5, 150 mM NaCl, 0.01% gelatin (G1393 Sigma). The assay was performed using 384 well black flat bottom plate from grenier (Cat log: 781076) at 25° C. The enzyme and compound preincubated for 30 mins, plate was read 60 mins after substrate addition at wavelength Ex: 360/Em:480 nm. The final assay volume of was 20 μl. Stock solution of compounds were initially prepared in DMSO and appropriate dilutions were made for screening and IC50 determination (final DMSO conc in the assay was 1%). All the measurements were carried out using the Spectramax M5, Molecular devices. The compounds were screened at 1 and 10 μM concentration and IC50 was determined for the interested compounds.
# To determine IC50 values, dose response curves were generated by plotting percentage inhibition as a function of inhibitor concentration and the data was fitted to sigmoidal non-linear regression equation (variable slope) using Graph Pad prism software V7.
row,Structure (SMILES),Mar-2 % inhibition at 1 uM
1,CNC(=O)c1cc2ccc(C(=N)N)cc2n1Cc1cccc2ccccc12 [Compound I-483],C (C represents 50%≤I≤75%)

# Same assay, conditions: 1 uM compound; Assay Used = B (Method B); read-out: Mar-2 % inhibition at 1 uM
row,Structure (SMILES),inhibition at 1 µM
1,CCOC(=O)c1cc2ccc(C(=N)N)cc2n1Cc1cccc2ccccc12 [Compound I-601],50 to 75%
2,CCOC(=O)c1cc2ccc(C(=N)N)cc2n1Cc1cc(S(=O)(=O)c2ccccc2)cc2ccccc12 [Compound I-669],25 to 50%
3,N=C(N)c1ccc2cc(C(=O)O)n(Cc3cc(Cc4ccccc4)cc4ccccc34)c2c1 [Compound I-649],0 to 25%
4,Cn1c(C(=O)O)c(Cc2cccc3ccccc23)c2cc(/C(N)=N/O)ccc21 [Compound I-641],0 to 25%
5,CC(C)COC(=O)NC(=N)c1ccc2cc(C(=O)NC3CCN(C)CC3)n(Cc3cccc4ccccc34)c2c1 [Compound I-783],0 to 25%
6,CNC(=N)c1ccc2[nH]c(C(=O)N[C@H]3CC[C@H](N)CC3)c(Cc3cccc4ccccc34)c2c1 [Compound I-747],0 to 25%
7,COc1ccccc1Oc1cc(Cn2c(C(=O)N[C@H]3CC[C@H](N)CC3)cc3ccc(C(=N)N)cc32)c2ccccc2c1 [Compound I-700],50 to 75%
8,N=C(N)c1ccc2cc(C(=O)O)n(-c3cc(CO)c4ccccc4c3)c2c1 [Compound I-677],50 to 75%
9,N=C(N)c1ccc2cc(C(=O)N[C@H]3CC[C@@H](N)CC3)n(Cc3csc4ccccc34)c2n1 [Compound I-722],75 to 100%
10,CC(C)OC(=O)NC(=N)c1ccc2cc(C(=O)O)n(Cc3cccc4ccccc34)c2c1 [Compound I-786],0 to 25%
11,Cn1c(C(=O)O)c(-c2ccc3ccccc3c2)c2cc(C(=N)N)ccc21 [Compound I-637],0 to 25%
12,N=C(N)c1ccc2cc(C(=O)O)n(Cc3cc(OC(F)F)cc4ccccc34)c2c1 [Compound I-648],50 to 75%
13,CC(C)COC(=O)NC(=N)c1ccc2cc(C(=O)O)n(Cc3cccc4ccccc34)c2c1 [Compound I-791],0 to 25%
14,"N=C(N)c1ccc2cc(-c3nccs3)n(Cc3cccc4ccccc34)c2c1 [Compound I-750, 1-(naphthalen-1-ylmethyl)-2-(thiazol-2-yl)-1H-indole-6-carboximidamide]",50 to 75%
15,N=C(N)c1ccc2cc(C(=O)N[C@H]3CC[C@H](N)CC3)n(Cc3c(Cl)c(Sc4ccccc4)cc4ccccc34)c2c1 [Compound I-652],50 to 75%
16,CCOC(=O)c1cc2ccc(C(N)=NO)cc2n1Cc1cc(S(=O)(=O)c2ccccc2)cc2ccccc12 [Compound I-658],0 to 25%

# Same assay, conditions: 1 uM compound; Assay Used = B; read-out: Mar-2 % inhibition at 1 uM
row,Structure (SMILES),inhibition at 1 µM
1,CC(C)(C)OC(=O)NC(=N)c1ccc2cc(C(=O)N3CCC(CO)CC3)n(Cc3cccc4ccccc34)c2c1 [Compound I-426],0 to 25%
2,"CC(N)c1ccc2cc(C(=O)N[C@H]3CC[C@H](N)CC3)n(Cc3cccc4ccccc34)c2c1 (some centres unmarked) [Compound I-580, N-((1r,4r)-4-aminocyclohexyl)-6-(1-aminoethyl)-1-(naphthalen-1-ylmethyl)-1H-indole-2-carboxamide]",0 to 25%
3,N=C(N)c1ccc2c(C(=O)N[C@H]3CC[C@H](N)CC3)cn(Cc3ccc4ccccc4c3)c2c1 [Compound I-520],0 to 25%
4,COC(=O)NCCOC(=O)c1cc2ccc(C(=N)NC(=O)OCC(C)C)cc2n1Cc1cc(Oc2ncccn2)cc2ccccc12 [Compound I-550],0 to 25%
5,"N=C(N)c1ccc2cc(-c3nnc([C@H]4CC[C@H](N)CC4)o3)n(Cc3cccc4ccccc34)c2c1 [Compound I-525, 2-(5-((1r,4r)-4-aminocyclohexyl)-1,3,4-oxadiazol-2-yl)-1-(naphthalen-1-ylmethyl)-1H-indole-6-carboximidamide]",75 to 100%
6,N=C(N)c1ccc2cc(C(=O)N[C@H]3CC[C@H](N)CC3)n(Cc3ccnc4ccccc34)c2c1 [Compound I-499],50 to 75%
7,N=C(N)c1ccc2cc(C(=O)O)n(Cc3ccc4ccccc4c3)c2c1 [Compound I-459],25 to 50%
8,NC(=O)c1ccc2cc(C(=O)N[C@@H]3CCNC3)n(Cc3cccc4ccccc34)c2c1 [Compound I-456],0 to 25%
9,COC(=O)NC(=N)c1ccc2cc(C(=O)O)n(Cc3cc(Oc4ncccn4)cc4ccccc34)c2c1 [Compound I-561],25 to 50%
10,CC(C)(C)OC(=O)NC(=N)c1ccc2cc(C(=O)N[C@H]3CC[C@H](O)CC3)n(Cc3cccc4ccccc34)c2c1 [Compound I-422],25 to 50%
11,"CCNC(=N)c1ccc2cc(C(=O)N[C@H]3CC[C@H](N)CC3)n(Cc3ccc4ccccc4c3)c2c1 [Compound I-413, N-((1r,4r)-4-aminocyclohexyl)-6-(N-ethylcarbamimidoyl)-1-(naphthalen-2-ylmethyl)-1H-indole-2-carboxamide]",25 to 50%
12,N=C(N)c1ccc2cc(C(=O)OCCO)n(Cc3cc(Oc4ncccn4)cc4ccccc34)c2c1 [Compound I-565],75 to 100%
13,N=C(N)c1ccc2cc(C(=O)O)n(Cc3cc(Oc4ncc(F)cn4)cc4ccccc34)c2c1 [Compound I-571],50 to 75%
14,CN(C)C(=O)Sc1cc(Cn2c(C(=O)O)cc3ccc(C(=N)N)cc32)c2ccccc2c1 [Compound I-575],0 to 25%
15,CN(C)[C@H]1CC[C@@H](NC(=O)c2cc3ccc(C(=N)N)cc3n2Cc2cccc3ccccc23)CC1 [Compound I-470],75 to 100%
16,CN1CCN(C(=O)c2cc3ccc(C(=N)N)cc3n2Cc2cccc3ccccc23)CC1 [Compound I-443],0 to 25%
17,CN(C(=O)c1cc2ccc(C(=N)N)cc2n1Cc1cccc2ccccc12)[C@H]1CC[C@H](N)CC1 [Compound I-451],50 to 75%
18,"N=C(N)c1ccc2c(CO)c(C(=O)N[C@H]3CC[C@H](N)CC3)n(Cc3cccc4ccccc34)c2c1 [Compound I-516, N-((1r,4r)-4-aminocyclohexyl)-6-carbamimidoyl-3-(hydroxymethyl)-1-(naphthalen-1-ylmethyl)-1H-indole-2-carboxamide]",0 to 25%
19,N=C(N)c1ccc2cc(C(=O)N[C@H]3CC[C@H](N)CC3)n(Cc3cccc4ccccc34)c2c1 [Compound I-407],75 to 100%
20,N=C(N)c1ccc2cc(C(=O)NCCN)n(Cc3cccc4ccccc34)c2c1 [Compound I-465],75 to 100%
21,N=C(N)c1ccc2cc(C(=O)N[C@H]3CC[C@@H](N)CC3)n(Cc3cccc4ccccc34)c2c1 [Compound I-439],75 to 100%

# Same assay, conditions: at 1 uM; Assay Used = B; read-out: Mar-2 % inhibition at 1 uM
row,Structure (SMILES),inhibition at 1 µM
1,"N=C(N)c1ccc2cc(C(=O)N[C@H]3CC[C@H](N)CC3)n(S(=O)(=O)c3cccc4ccccc34)c2c1 [Compound I-396, N-((1r,4r)-4-aminocyclohexyl)-6-carbamimidoyl-1-(naphthalen-1-ylsulfonyl)-1H-indole-2-carboxamide]",25 to 50%
2,N=C(N)c1ccc2cc(C(=O)N[C@H]3CC[C@H](N)CC3)n(Cc3ccc4ccccc4c3)c2c1 [Compound I-233],25 to 50%

# Same assay, conditions: compound at 1 uM; Assay Used: B; read-out: Mar-2 % inhibition at 1 uM
row,Structure (SMILES),inhibition at 1 µM
1,"CN(C)CCCOc1ccc2c(Cn3c(C(=O)N[C@H]4CC[C@H](N)CC4)cc4ccc(C(=N)N)cc43)cccc2c1 [Compound I-804, N-((1r,4r)-4-aminocyclohexyl)-6-carbamimidoyl-1-((6-(3-(dimethylamino)propoxy)naphthalen-1-yl)methyl)-1H-indole-2-carboxamide]",75 to 100%
2,N=C(N)c1ccc2cc(C(=O)N[C@H]3CC[C@H](N)CC3)n(Cc3cc(Br)cc4ccccc34)c2c1 [Compound I-819],75 to 100%
3,COc1ccc2ccccc2c1Cn1c(C(=O)N[C@H]2CC[C@H](N)CC2)cc2ccc(C(=N)N)cc21 [Compound I-799],0 to 25%

# Same assay, conditions: read-out: Mar-2 % inhibition at 1 uM
row,Structure (SMILES),inhibition at 1 µM
1,CN1CCC(NC(=O)c2cc3ccc(C(=N)NC(=O)Oc4ccccc4)cc3n2Cc2cc(Oc3ncccn3)cc3ccccc23)CC1 [Compound I-553],0 to 25%
